Results: PubChem BioAssay AID1963844 (Molecular Pharmacology Branch, DTP, NCI, 2024)

Tested on: 422866-222-R5-J1-PDC complex spheroid viability
Assay: Anticancer human tumor 422866-222-R5-J1-PDC patient-derived pancreatic adenocarcinoma cell line growth inhibition [POLQ]
Conditions: for IC50: curve of first compound; for viability, T/C: stronger effect = lower value
Outline: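 PDC + HUVEC + MSC complex spheroids; POLQ inhibitors ± partner drugs; top conc. at/near clinical Cmax, else 10 microM (SN-38 1 microM), half-log dilutions; 37 degrees C, 5% CO2.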

[1] = second compound 0.0316 µM, first compound 0.0316 µM
[2] = second compound 0.0316 µM, first compound 0.1 µM
[3] = second compound 0.0316 µM, first compound 0.316 µM
[4] = second compound 0.0316 µM, first compound 1 µM
[5] = second compound 0.0316 µM, first compound 3.16 µM
[6] = second compound 0.0316 µM, first compound 10 µM
[7] = second compound 0.1 µM, first compound 0.0316 µM
[8] = second compound 0.1 µM, first compound 0.1 µM
[9] = second compound 0.1 µM, first compound 0.316 µM
[10] = second compound 0.1 µM, first compound 1 µM
[11] = second compound 0.1 µM, first compound 3.16 µM
[12] = second compound 0.1 µM, first compound 10 µM
[13] = second compound 0.316 µM, first compound 0.0316 µM
[14] = second compound 0.316 µM, first compound 0.1 µM
[15] = second compound 0.316 µM, first compound 0.316 µM
[16] = second compound 0.316 µM, first compound 1 µM
[17] = second compound 0.316 µM, first compound 3.16 µM
[18] = second compound 0.316 µM, first compound 10 µM
[19] = second compound 1 µM, first compound 0.0316 µM
[20] = second compound 1 µM, first compound 0.1 µM
[21] = second compound 1 µM, first compound 0.316 µM
[22] = second compound 1 µM, first compound 1 µM
[23] = second compound 1 µM, first compound 3.16 µM
[24] = second compound 1 µM, first compound 10 µM
[25] = second compound 3.16 µM, first compound 0.0316 µM
[26] = second compound 3.16 µM, first compound 0.1 µM
[27] = second compound 3.16 µM, first compound 0.316 µM
[28] = second compound 3.16 µM, first compound 1 µM
[29] = second compound 3.16 µM, first compound 3.16 µM
[30] = second compound 3.16 µM, first compound 10 µM
[31] = second compound 10 µM, first compound 0.0316 µM
[32] = second compound 10 µM, first compound 0.1 µM
[33] = second compound 10 µM, first compound 0.316 µM
[34] = second compound 10 µM, first compound 1 µM
[35] = second compound 10 µM, first compound 3.16 µM
[36] = second compound 10 µM, first compound 10 µM
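Note: spheroids exposed to compounds for one week before readout.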
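Throughout, for viability, T/C: percent of DMSO vehicle wells luminescence so 100% = untreated viability.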

Compound: C=CC(=O)N1CCN(c2nc(=O)n(-c3c(C)ccnc3C(C)C)c3nc(-c4c(O)cccc4F)c(F)cc23)C(C)C1 (stereo not drawn) + COC1C(OC(N)=O)C(O)C(Oc2ccc3c(O)c(NC(=O)c4ccc(O)c(CC=C(C)C)c4)c(=O)oc3c2C)OC1(C)C
- IC50 (second compound 0.0316 µM): < 0.0316 µM
- IC50 (second compound 0.1 µM): < 0.0316 µM
- IC50 (second compound 0.316 µM): < 0.0316 µM
- IC50 (second compound 1 µM): < 0.0316 µM
- IC50 (second compound 3.16 µM): < 0.0316 µM
- IC50 (second compound 10 µM): < 0.0316 µM
- viability, T/C [1]: 33.4%
- viability, T/C [2]: 26.7%
- viability, T/C [3]: 29%
- viability, T/C [4]: 22.4%
- viability, T/C [5]: 28%
- viability, T/C [6]: 33%
- viability, T/C [7]: 32.8%
- viability, T/C [8]: 28.9%
- viability, T/C [9]: 23.3%
- viability, T/C [10]: 23.7%
- viability, T/C [11]: 23.2%
- viability, T/C [12]: 27.1%
- viability, T/C [13]: 29.9%
- viability, T/C [14]: 25.1%
- viability, T/C [15]: 24.3%
- viability, T/C [16]: 21%
- viability, T/C [17]: 24.4%
- viability, T/C [18]: 28.7%
- viability, T/C [19]: 34.4%
- viability, T/C [20]: 30.6%
- viability, T/C [21]: 28.4%
- viability, T/C [22]: 28.4%
- viability, T/C [23]: 20.8%
- viability, T/C [24]: 25.6%
- viability, T/C [25]: 31.3%
- viability, T/C [26]: 27.1%
- viability, T/C [27]: 28.3%
- viability, T/C [28]: 23.7%
- viability, T/C [29]: 28.2%
- viability, T/C [30]: 29.3%
- viability, T/C [31]: 32.2%
- viability, T/C [32]: 26.8%
- viability, T/C [33]: 30%
- viability, T/C [34]: 22.9%
- viability, T/C [35]: 25.4%
- viability, T/C [36]: 28.6%

Compound: CC(C)n1c(=O)n(C)c2cnc3cc(F)c(-c4ccc(OCCCN5CCCCC5)nc4)cc3c21 + COC1C(OC(N)=O)C(O)C(Oc2ccc3c(O)c(NC(=O)c4ccc(O)c(CC=C(C)C)c4)c(=O)oc3c2C)OC1(C)C
- IC50 (second compound 0.0316 µM): < 0.0316 µM
- IC50 (second compound 0.1 µM): < 0.0316 µM
- IC50 (second compound 0.316 µM): < 0.0316 µM
- IC50 (second compound 1 µM): < 0.0316 µM
- IC50 (second compound 3.16 µM): < 0.0316 µM
- IC50 (second compound 10 µM): < 0.0316 µM
- viability, T/C [1]: 40.7%
- viability, T/C [2]: 36.1%
- viability, T/C [3]: 34.5%
- viability, T/C [4]: 38.5%
- viability, T/C [5]: 39.4%
- viability, T/C [6]: 37.2%
- viability, T/C [7]: 42.6%
- viability, T/C [8]: 38.5%
- viability, T/C [9]: 39.1%
- viability, T/C [10]: 37.8%
- viability, T/C [11]: 36.9%
- viability, T/C [12]: 36.2%
- viability, T/C [13]: 40.6%
- viability, T/C [14]: 36.1%
- viability, T/C [15]: 42.4%
- viability, T/C [16]: 44.7%
- viability, T/C [17]: 34%
- viability, T/C [18]: 30.2%
- viability, T/C [19]: 34.6%
- viability, T/C [20]: 45.8%
- viability, T/C [21]: 37.2%
- viability, T/C [22]: 38.6%
- viability, T/C [23]: 39.2%
- viability, T/C [24]: 32.1%
- viability, T/C [25]: 44%
- viability, T/C [26]: 40%
- viability, T/C [27]: 42.3%
- viability, T/C [28]: 33.4%
- viability, T/C [29]: 35.4%
- viability, T/C [30]: 39.6%
- viability, T/C [31]: 39.1%
- viability, T/C [32]: 39%
- viability, T/C [33]: 38.8%
- viability, T/C [34]: 43.4%
- viability, T/C [35]: 35.2%
- viability, T/C [36]: 32.6%

Compound: CCc1cc2c(N3CCc4c(cc(Cn5ccnc5)cc4-c4cn(C)nc4C(F)(F)F)C3=O)ccnc2c(OC)n1 + COC1C(OC(N)=O)C(O)C(Oc2ccc3c(O)c(NC(=O)c4ccc(O)c(CC=C(C)C)c4)c(=O)oc3c2C)OC1(C)C
- IC50 (second compound 0.0316 µM): > 10 µM
- IC50 (second compound 0.1 µM): > 10 µM
- IC50 (second compound 0.316 µM): > 10 µM
- IC50 (second compound 1 µM): > 10 µM
- IC50 (second compound 3.16 µM): > 10 µM
- IC50 (second compound 10 µM): > 10 µM
- viability, T/C [1]: 95.3%
- viability, T/C [2]: 92.8%
- viability, T/C [3]: 108%
- viability, T/C [4]: 119%
- viability, T/C [5]: 113%
- viability, T/C [6]: 116%
- viability, T/C [7]: 92.8%
- viability, T/C [8]: 108%
- viability, T/C [9]: 116%
- viability, T/C [10]: 104%
- viability, T/C [11]: 110%
- viability, T/C [12]: 111%
- viability, T/C [13]: 104%
- viability, T/C [14]: 91%
- viability, T/C [15]: 92.2%
- viability, T/C [16]: 101%
- viability, T/C [17]: 112%
- viability, T/C [18]: 124%
- viability, T/C [19]: 86.6%
- viability, T/C [20]: 91.4%
- viability, T/C [21]: 102%
- viability, T/C [22]: 100%
- viability, T/C [23]: 115%
- viability, T/C [24]: 124%
- viability, T/C [25]: 91.9%
- viability, T/C [26]: 105%
- viability, T/C [27]: 129%
- viability, T/C [28]: 114%
- viability, T/C [29]: 105%
- viability, T/C [30]: 114%
- viability, T/C [31]: 93%
- viability, T/C [32]: 98.1%
- viability, T/C [33]: 105%
- viability, T/C [34]: 109%
- viability, T/C [35]: 105%
- viability, T/C [36]: 122%

Compound: COc1cc2cc(C(=O)CCC(=O)O)sc2cc1OC + COC1C(OC(N)=O)C(O)C(Oc2ccc3c(O)c(NC(=O)c4ccc(O)c(CC=C(C)C)c4)c(=O)oc3c2C)OC1(C)C
- IC50 (second compound 0.0316 µM): > 10 µM
- IC50 (second compound 0.1 µM): > 10 µM
- IC50 (second compound 0.316 µM): > 10 µM
- IC50 (second compound 1 µM): > 10 µM
- IC50 (second compound 3.16 µM): > 10 µM
- IC50 (second compound 10 µM): > 10 µM
- viability, T/C [1]: 102%
- viability, T/C [2]: 104%
- viability, T/C [3]: 87.3%
- viability, T/C [4]: 114%
- viability, T/C [5]: 94.2%
- viability, T/C [6]: 106%
- viability, T/C [7]: 114%
- viability, T/C [8]: 95.8%
- viability, T/C [9]: 93.8%
- viability, T/C [10]: 105%
- viability, T/C [11]: 88.1%
- viability, T/C [12]: 102%
- viability, T/C [13]: 98.8%
- viability, T/C [14]: 95%
- viability, T/C [15]: 110%
- viability, T/C [16]: 93.4%
- viability, T/C [17]: 93.8%
- viability, T/C [18]: 106%
- viability, T/C [19]: 104%
- viability, T/C [20]: 96.8%
- viability, T/C [21]: 94.4%
- viability, T/C [22]: 102%
- viability, T/C [23]: 92.7%
- viability, T/C [24]: 115%
- viability, T/C [25]: 99.1%
- viability, T/C [26]: 102%
- viability, T/C [27]: 107%
- viability, T/C [28]: 103%
- viability, T/C [29]: 92.5%
- viability, T/C [30]: 134%
- viability, T/C [31]: 97.2%
- viability, T/C [32]: 104%
- viability, T/C [33]: 105%
- viability, T/C [34]: 99%
- viability, T/C [35]: 94.8%
- viability, T/C [36]: 122%
